Reference: PubChem BioAssay (NCI)
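Interpolation was linear, between the two tested concentrations surrounding the appropriate level; five concentrations were tested over 48 hours in 96-well plates. GI50 is the concentration that inhibits growth by half. At the TGI there is no net growth.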

Experiments:
Assay in all cases: NCI anticancer screen, dose series, 48 h
[1] = tested on: KM12 colon
[2] = tested on: HCT-15 colon
[3] = tested on: T-47D breast
[4] = tested on: SF-295 CNS
[5] = tested on: DU-145 prostate
[6] = tested on: SNB-75 CNS
[7] = tested on: IGROV1 ovarian
[8] = tested on: SR leukemia
[9] = tested on: SK-MEL-2 melanoma
[10] = tested on: UACC-62 melanoma

| Compound | GI50 [1] [µM] | TGI [1] [µM] | GI50 [2] [µM] | TGI [2] [µM] | GI50 [3] [µM] | TGI [3] [µM] | GI50 [4] [µM] | TGI [4] [µM] | GI50 [5] [µM] | TGI [5] [µM] | GI50 [6] [µM] | TGI [6] [µM] | GI50 [7] [µM] | TGI [7] [µM] | GI50 [8] [µM] | TGI [8] [µM] | GI50 [9] [µM] | TGI [9] [µM] | GI50 [10] [µM] | TGI [10] [µM] |
| --- | --- | --- | --- | --- | --- | --- | --- | --- | --- | --- | --- | --- | --- | --- | --- | --- | --- | --- | --- | --- |
| Cc1cccnc1CNC1CC(NCc2ncccc2C)CC(NCc2ncccc2C)C1 (stereo not drawn) | 4.51 | 20.4 | 4.05 | 13.3 | 1.94 | 3.89 | 3.12 | 8.6 | 1.88 | 3.58 | 2.21 | 4.32 | 3.89 | 40.3 | 0.406 | 2.09 | 3.9 | > 100 | 1.82 | 3.63 |
| CCS/C(Nc1ccccc1)=C(\C#N)C(=O)N/N=C/c1ccc(Cl)cc1Cl | 4.04 | > 100 | 2.9 | > 100 | 4.03 | > 100 | 2.89 | > 100 | 3.57 | > 100 | 2.15 | 9.37 | 6.46 | > 100 | 3.45 | > 100 | 3.24 | 43.6 | 2.74 | > 100 |
| C=C=[CH][Sn]([c]1ccccc1)([c]1ccccc1)[c]1ccccc1 | 1.49 | 2.95 | 1.4 | 2.9 | 1.29 | 2.82 | 1.96 | 3.89 | 1.14 | 2.42 | 1.31 | 4.72 | 1.63 | 4.47 | 1.32 | 8.39 | 1.84 | 3.71 | 1.65 | 3.28 |
| COc1ccc(-c2cncn2-c2cc(OC)c(OC)c(OC)c2)cc1F | < 0.01 | > 49.8 | < 0.01 | > 100 | < 0.01 | > 100 | < 0.0142 | – | < 0.0342 | > 100 | < 0.0119 | > 100 | < 0.0212 | 19 | < 0.01 | – | < 0.0172 | > 100 | < 0.0117 | > 100 |
| N#CC[C@H](C1CCCC1)n1cc(-c2ncnc3[nH]ccc23)cn1 | 2.71 | > 62.6 | 26.6 | > 100 | 23.8 | > 91.1 | 19.4 | 51.4 | 19.3 | > 100 | 3.3 | > 61.8 | 34 | > 100 | 4.04 | 41.6 | 30.5 | 78.2 | 37 | > 100 |
| CS(=O)(=O)c1nc(Cl)c(Cl)c(C#N)c1Cl | – | 17.6 | – | 3.5 | – | 4.83 | – | 35.1 | – | 21.4 | – | 26.9 | – | 14.1 | – | > 36.4 | – | 14.5 | – | 10.8 |
| C[C@@H]1CN2[C@H]3[C@@H]1CC[C@]31CCC(=O)O[C@]1(C)[C@@H]1CC[C@H]3CCC=C3[C@@H]12 | > 70 | > 70 | > 70 | > 70 | > 70 | > 70 | > 70 | > 70 | > 70 | > 70 | 35.3 | > 70 | > 70 | > 70 | > 70 | > 70 | > 70 | > 70 | > 70 | > 70 |
| Nc1cccc2nsnc12 | – | > 100 | – | > 100 | – | > 100 | – | > 100 | – | > 100 | – | > 100 | – | > 100 | – | > 63.5 | – | > 100 | – | > 100 |
| CCCCCCC1N=C(N)N=C(N)N1c1ccc(Cl)cc1 (stereo not drawn) | 10.4 | 22.9 | > 100 | > 100 | 20 | 70.5 | 2.58 | 17.6 | 12.1 | > 100 | 6.31 | 33.5 | 3.53 | 17.4 | 3 | 11.9 | 11.7 | 26.3 | 8.55 | 37.6 |
| O=C(CC1(O)C(=O)Nc2c(Cl)ccc(Cl)c21)c1ccc(C2CC2)cc1 (stereo not drawn) | 0.445 | 15.9 | 0.185 | 14.3 | 1.56 | 27.1 | 0.44 | 4.32 | 1.63 | 17.8 | 1.99 | 9.33 | 1.5 | 18.2 | 0.106 | 15.3 | 2.06 | 8.83 | 0.508 | 17.4 |
